Some test systems named below: SNB-78; SNB-75; 786-0; ACHN; OVCAR-4; HOP-62; SN12C; HOP-18; SF-268; SNB-19; NCI-H23; HT-29; BT-549; K562; DMS-273; PC-3; M19-MEL; SF-539; SK-MEL-28; T47D.
Test in all cases: inhibition of tumour cell growth, NCI panel, 48 h

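Results reflect a 48-hour exposure of cells in 96-well plates to compound at five concentrations. Abbreviation: GI50, concentration required for 50% inhibition of growth.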 The source made the active and inactive calls. No stated cut-off is given here; in the data, active = GI50 up to about 1.1 µM and inactive = higher.

As to `COc1ccc(/C=C\c2cc(OC)c(OC)c(OC)c2)cc1OCC(=O)O`, the GI50 is 4.17 µM (inactive) in the assay with SNB-78; 5.15 µM (inactive) in the assay with SNB-75; 37.6 µM (inactive) in the assay on 786-0; 10.2 µM (inactive) with ACHN; 20.7 µM (inactive) in the assay with OVCAR-4; 8.36 µM (inactive) in the assay on HOP-62. Besides, the GI50 with SN12C is 9.18 µM (inactive); in the assay with HOP-18 it was > 100 µM (inactive); in the assay on SF-268, 10.9 µM (inactive); with SNB-19, 4.18 µM (inactive); in the assay with NCI-H23, 3.9 µM (inactive); in the assay with HT-29, > 100 µM (inactive). The GI50 in the assay on BT-549 is 13500 nM (inactive); in the assay with K562, 3.68 µM (inactive); in the assay with DMS-273, 6.22 µM (inactive); in the assay on PC-3, 5.5 µM (inactive); in the assay with M19-MEL, 4.55 µM (inactive); with SF-539, 3.64 µM (inactive). Further, in the assay with SK-MEL-28, the GI50 is 6.61 µM (inactive).

Consider `CCOC(=O)Cc1nc2ccc3c(c2nc1O)C(=O)c1ccccc1C3=O`, for which the GI50 with SNB-78 was 70.5 µM (inactive); with SNB-75, 62.7 µM (inactive); with 786-0 it was 65.6 µM (inactive); with ACHN it was 20.6 µM (inactive); with OVCAR-4 it was 46.5 µM (inactive); in the assay on HOP-62, 28.2 µM (inactive). Further, the GI50 in the assay with SN12C was 23.7 µM (inactive); in the assay with HOP-18, 16 µM (inactive); with SF-268, 38.5 µM (inactive); in the assay with SNB-19, > 100 µM (inactive); in the assay with NCI-H23 it was 40.2 µM (inactive); in the assay with HT-29, > 100 µM (inactive). The GI50 was 32.4 µM (inactive) with K562; 40.5 µM (inactive) in the assay on DMS-273; 78.2 µM (inactive) with M19-MEL; 76.4 µM (inactive) in the assay with SF-539; > 100 µM (inactive) in the assay on SK-MEL-28.

Consider `CCC(C)SC1SCC2C(=O)N(C)C3(CC3C)C(=O)OCC(NC(=O)c3nc4ccccc4cc3O)C(=O)NC(C)C(=O)N(C)C1C(=O)N(C)C1(CC1C)C(=O)OCC(NC(=O)c1nc3ccccc3cc1O)C(=O)NC(C)C(=O)N2C` (stereo not drawn), for which the GI50 is 0.01 µM (active) with SNB-78; 2.93e-05 µM (active) in the assay with SNB-75; 3.4e-05 µM (active) in the assay on 786-0; 5.64e-05 µM (active) in the assay on HOP-62; 4.99e-05 µM (active) in the assay on SN12C; 0.000232 µM (active) in the assay with HOP-18. The GI50 in the assay with SF-268 was 4.81e-05 µM (active); with SNB-19, 4.79e-05 µM (active); with NCI-H23, 3.25e-05 µM (active); in the assay with BT-549, 0.0435 nM (active); in the assay on K562 it was 2.77e-05 µM (active); in the assay with DMS-273 it was 2.3e-05 µM (active). For the same compound, the GI50 in the assay on PC-3 was 0.000116 µM (active); in the assay with T47D, 0.000219 µM (active); in the assay with M19-MEL, 3.3e-05 µM (active); in the assay with SF-539, 4.79e-05 µM (active).

In the case of `Cc1cc(Cl)ccc1Nc1nc2c(s1)C(=O)c1ccccc1C2=O`, the GI50 was 14.5 µM (inactive) with SNB-78; 7.33 µM (inactive) in the assay on SNB-75; 1.71 µM (inactive) in the assay on 786-0; 3.98 µM (inactive) in the assay on ACHN; 3.29 µM (inactive) in the assay with OVCAR-4; 5.13 µM (inactive) with HOP-62. Further, the GI50 is 1.8 µM (inactive) with SN12C; 3 µM (inactive) in the assay on HOP-18; 3.24 µM (inactive) with SF-268; 4.75 µM (inactive) in the assay with SNB-19; 1.84 µM (inactive) in the assay with NCI-H23; 18.3 µM (inactive) in the assay with HT-29. In addition, the GI50 with BT-549 was 1530 nM (inactive); with K562, 2.41 µM (inactive); with DMS-273 it was 2.52 µM (inactive); with PC-3, 1.82 µM (inactive); in the assay on T47D, 2.02 µM (inactive); in the assay with M19-MEL it was 0.728 µM (active). Further, the GI50 in the assay with SF-539 is 3.39 µM (inactive); with SK-MEL-28, 1.98 µM (inactive).

As for `O=c1nc(N2CCCC2)nc(N2CCCC2)s1`, the GI50 in the assay with SNB-78, in the assay on SNB-75, in the assay on 786-0, in the assay with ACHN, in the assay on OVCAR-4 and in the assay on HOP-62 was > 100 µM (inactive) each time. Also, the GI50 in the assay with SN12C, in the assay with HOP-18, in the assay on SF-268, with SNB-19, with NCI-H23 and with HT-29 was > 100 µM (inactive) in each case. In addition, the GI50 in the assay on K562, in the assay on DMS-273, in the assay on M19-MEL, with SF-539 and in the assay with SK-MEL-28 was > 100 µM (inactive) throughout.

In the case of `COc1cc(C2[C@H]3C(=O)N(c4ccc(Cc5ccc(N6C(=O)[C@@H]7ON(c8ccccc8)C(c8cc(OC)c(OC)c(OC)c8)[C@@H]7C6=O)cc5)cc4)C(=O)[C@H]3ON2c2ccccc2)cc(OC)c1OC` (stereo partly drawn), the GI50 with SNB-78, in the assay with SNB-75, in the assay on 786-0, in the assay with ACHN, in the assay with OVCAR-4 and with HOP-62 was > 100 µM (inactive) each time. In addition, the GI50 with SN12C, in the assay on HOP-18, in the assay with SF-268, in the assay on SNB-19, with NCI-H23 and in the assay on HT-29 was > 100 µM (inactive) throughout. Further, the GI50 in the assay on K562, with DMS-273, with M19-MEL, in the assay on SF-539 and with SK-MEL-28 was > 100 µM (inactive) each time.

For `CC1(C)CC(=O)C(CC2C(=O)CCCC2=O)C(=O)C1`, the GI50 in the assay with SNB-78, in the assay on SNB-75, in the assay on 786-0, in the assay on ACHN, in the assay with OVCAR-4 and in the assay on HOP-62 was > 100 µM (inactive) each time. Besides, the GI50 in the assay with SN12C, in the assay with HOP-18, with SF-268, in the assay on SNB-19, with NCI-H23 and with HT-29 was > 100 µM (inactive) each time. Also, the GI50 in the assay on K562, in the assay with DMS-273, with M19-MEL, in the assay on SF-539 and with SK-MEL-28 was > 100 µM (inactive) each time.
